According to ChEMBL document CHEMBL1130186, “Potent alpha 4 beta 1 peptide antagonists as potential anti-inflammatory agents” (J Med Chem, 1997):
*1 amine or outer side, *2 acyl side, *3 side chain or, on linkers, in order; H or OH if unused. Where a SMILES comes first, the peptide text is derived from it. Bridges are numbered along the chain shown (N, C = ends). [ ]: non-standard residue; d: D form. The star is where a group is joined. ξ: configuration not given here. X7 = O=C([C@H]1[C@@H](c2ccc(O)cc2)CCN1[*:1])[*:2]; X3 = O=C([C@H]1[C@H](c2ccc(O)cc2)CCN1[*:1])[*:2]; Oic(3aξ,7aξ) = O=C(O)[C@@H]1CC2CCCCC2N1; Fmoc = O=C(OCC1c2ccccc2-c2ccccc21)*; 1Naphthoyl = O=C(c1cccc2ccccc12)*; 2Naphthoyl = O=C(c1ccc2ccccc2c1)*; Hyp = O=C(O)[C@@H]1C[C@@H](O)CN1; Cha = N[C@@H](CC1CCCCC1)C(=O)O; Aic = NC1(C(=O)O)Cc2ccccc2C1; Chg = N[C@H](C(=O)O)C1CCCCC1; Phg = N[C@H](C(=O)O)c1ccccc1; 3Amb = NCc1cccc(C(=O)O)c1; 4Amb = NCc1ccc(C(=O)O)cc1; Pip = O=C(O)[C@@H]1CCCCN1; 3Abz = Nc1cccc(C(=O)O)c1; 4Abz = Nc1ccc(C(=O)O)cc1; 2Abz = Nc1ccccc1C(=O)O; Bz = O=C(c1ccccc1)*; Ava = NCCCCC(=O)O; Sar = CNCC(=O)O

Key:
Integrin alpha-4/beta-1 [1] = molecular target: T1, Integrin alpha-4/beta-1 (Homo sapiens, UniProt P05556+P13612); assay: Inhibition of purified alpha-4 beta-1 binding to VCAM-1 was determined in an ELISA assay.; format: protein-complex assay
T1 sequence (P05556 whole entry): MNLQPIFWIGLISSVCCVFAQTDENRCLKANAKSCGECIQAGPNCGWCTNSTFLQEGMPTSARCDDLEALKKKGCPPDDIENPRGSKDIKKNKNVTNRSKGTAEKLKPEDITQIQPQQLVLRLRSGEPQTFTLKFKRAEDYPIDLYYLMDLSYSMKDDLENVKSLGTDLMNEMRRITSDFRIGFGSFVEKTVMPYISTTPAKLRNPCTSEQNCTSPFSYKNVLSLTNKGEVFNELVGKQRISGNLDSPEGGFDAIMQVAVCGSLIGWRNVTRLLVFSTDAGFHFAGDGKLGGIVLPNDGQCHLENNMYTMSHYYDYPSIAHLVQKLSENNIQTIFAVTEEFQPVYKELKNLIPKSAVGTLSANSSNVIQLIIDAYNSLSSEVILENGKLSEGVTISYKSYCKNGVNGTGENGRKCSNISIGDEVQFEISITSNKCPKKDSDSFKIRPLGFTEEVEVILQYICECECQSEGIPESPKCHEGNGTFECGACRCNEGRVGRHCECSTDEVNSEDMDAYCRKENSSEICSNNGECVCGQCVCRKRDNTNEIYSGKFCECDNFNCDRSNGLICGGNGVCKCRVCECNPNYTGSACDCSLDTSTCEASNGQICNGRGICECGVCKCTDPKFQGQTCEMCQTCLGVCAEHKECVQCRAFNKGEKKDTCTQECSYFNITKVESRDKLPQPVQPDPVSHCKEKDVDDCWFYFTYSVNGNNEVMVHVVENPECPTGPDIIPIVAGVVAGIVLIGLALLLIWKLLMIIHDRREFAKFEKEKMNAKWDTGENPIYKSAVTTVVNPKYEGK
T1 sequence (P13612 whole entry): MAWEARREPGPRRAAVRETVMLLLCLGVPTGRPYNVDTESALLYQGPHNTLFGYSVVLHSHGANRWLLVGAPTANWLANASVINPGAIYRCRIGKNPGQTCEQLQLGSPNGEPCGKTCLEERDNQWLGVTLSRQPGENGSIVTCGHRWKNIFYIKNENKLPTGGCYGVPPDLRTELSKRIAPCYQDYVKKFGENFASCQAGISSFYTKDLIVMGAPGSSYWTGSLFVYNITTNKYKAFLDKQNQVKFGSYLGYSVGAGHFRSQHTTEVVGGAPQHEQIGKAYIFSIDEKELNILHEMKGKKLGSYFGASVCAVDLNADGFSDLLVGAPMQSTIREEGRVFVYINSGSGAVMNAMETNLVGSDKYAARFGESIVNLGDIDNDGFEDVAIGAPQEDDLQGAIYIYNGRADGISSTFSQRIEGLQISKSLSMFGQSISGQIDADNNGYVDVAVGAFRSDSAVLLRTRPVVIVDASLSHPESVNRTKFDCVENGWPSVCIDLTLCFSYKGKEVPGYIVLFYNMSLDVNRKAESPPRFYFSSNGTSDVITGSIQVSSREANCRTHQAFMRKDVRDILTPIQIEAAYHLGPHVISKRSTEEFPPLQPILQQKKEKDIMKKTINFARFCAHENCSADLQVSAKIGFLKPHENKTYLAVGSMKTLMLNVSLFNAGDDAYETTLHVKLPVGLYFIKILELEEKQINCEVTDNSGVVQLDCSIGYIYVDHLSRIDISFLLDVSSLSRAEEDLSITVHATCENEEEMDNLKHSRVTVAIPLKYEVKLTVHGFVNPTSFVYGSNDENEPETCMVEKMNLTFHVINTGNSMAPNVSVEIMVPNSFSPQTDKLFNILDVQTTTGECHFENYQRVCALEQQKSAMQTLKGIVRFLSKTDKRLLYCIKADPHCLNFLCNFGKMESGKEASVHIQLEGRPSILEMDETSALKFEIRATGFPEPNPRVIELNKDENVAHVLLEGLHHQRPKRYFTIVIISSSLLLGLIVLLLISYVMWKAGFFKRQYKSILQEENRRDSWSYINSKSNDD

Integrin alpha-4/beta-1 [2] = molecular target: T1, Integrin alpha-4/beta-1; assay: Inhibition of fluorescently labeled alpha4-beta1 positive Ramos cells binding to immobilized VCAM-1.; format: cell-based

| Structure (SMILES) | IC50 (Integrin alpha-4/beta-1 [1]) [µM] | IC50 (Integrin alpha-4/beta-1 [2]) [µM] |
| --- | --- | --- |
| N[C@@H](Cc1ccc(O)cc1)C(=O)N[C@H]1CSSC[C@@H](C(=O)O)NC(=O)C2CCC(CC2)CNC1=O | 0.1 | 19 |
| N[C@H](Cc1ccc(O)cc1)C(=O)N[C@H]1CSSC[C@@H](C(=O)O)NC(=O)[C@@H]2CCCN2C(=O)[C@H](CO)NC1=O | 0.89 | 126 |
| CC1CNC(=O)[C@@H](NC(=O)[C@@H](N)Cc2ccc(O)cc2)CSSC[C@@H](C(=O)O)NC1=O (stereo partly specified) | 0.047 | 2.7 |
| O=C(N[C@H]1CSSC[C@@H](C(=O)O)NC(=O)[C@@H]2CCCN2C(=O)[C@H](CO)NC1=O)c1cccc2ccccc12 (1Naphthoyl-CSPC-OH; disulfide 1-4) | 0.097 | 6.3 |
| O=C(N[C@H]1CSSC[C@@H](C(=O)O)NC(=O)[C@@H]2CCCN2C(=O)[C@H](CO)NC1=O)c1ccc2ccccc2c1 (2Naphthoyl-CSPC-OH; disulfide 1-4) | 0.054 | 3.6 |
| CC(=O)N[C@@H](CCCN=C(N)N)C(=O)N[C@H]1CSSC[C@@H](C(=O)O)NC(=O)[C@@H]2CCCN2C(=O)[C@H](CC(=O)O)NC1=O (Ac-RCDPC-OH; disulfide 2-5) | 1.3 | 40 |
| CC(=O)N[C@@H](Cc1ccc(O)cc1)C(=O)N[C@H]1CSSC[C@@H](C(=O)O)NC(=O)CNC(=O)[C@H](C)NC1=O (Ac-YCAGC-OH; disulfide 2-5) | 22 | – |
| CC(=O)N[C@@H](Cc1ccc(O)cc1)C(=O)N[C@H]1CSSC[C@@H](C(N)=O)NC(=O)[C@@H]2CCCN2C(=O)[C@H](C)NC1=O (Ac-YCAPC-NH2; disulfide 2-5) | 0.32 | – |
| CC(=O)N[C@@H](Cc1ccc(O)cc1)C(=O)N[C@H]1CSSC[C@@H](C(=O)O)NC(=O)[C@@H]2CCCN2C(=O)[C@H](C)NC1=O (Ac-YCAPC-OH; disulfide 2-5) | 0.004 | 0.31 |
| CC(=O)N[C@@H](Cc1ccc(O)cc1)C(=O)N[C@H]1CSSC[C@@H](C(=O)O)NC(=O)[C@H](c2ccccc2)NC(=O)[C@H](C)NC1=O (Ac-YCA[Phg]C-OH; disulfide 2-5) | 0.076 | 33 |
| CC(=O)N[C@@H](Cc1ccc(O)cc1)C(=O)N[C@H]1CSSC[C@@H](C(=O)O)NC(=O)[C@@H]2CCCCN2C(=O)[C@H](C)NC1=O (Ac-YCA[Pip]C-OH; disulfide 2-5) | 0.001 | 0.02 |
| CC(=O)N[C@@H](Cc1ccc(O)cc1)C(=O)N[C@H]1CSSC[C@@H](C(=O)O)NC(=O)CN(C)C(=O)[C@H](C)NC1=O (Ac-YCA[Sar]C-OH; disulfide 2-5) | 0.71 | – |
| CC(=O)N[C@@H](Cc1ccc(O)cc1)C(=O)N[C@H]1CSSC[C@@H](C(=O)O)NC(=O)[C@@H]2CCCN2C(=O)[C@H](CO)NC1=O (Ac-YCSPC-OH; disulfide 2-5) | 0.002 | 0.12 |
| CC(=O)N[C@@H](Cc1ccc(O)cc1)C(=O)N[C@H]1CSSC[C@@H](C(=O)O)NC(=O)[C@@H]2CCCN2C(=O)[C@H]([C@@H](C)O)NC1=O (Ac-YCTPC-OH; disulfide 2-5) | 0.005 | 0.32 |
| CC(=O)N[C@@H](Cc1ccc(O)cc1)C(=O)N[C@H]1CSSC[C@@H](C(=O)O)NC(=O)[C@@H]2CCCN2C(=O)[C@H](Cc2ccc(O)cc2)NC1=O (Ac-YCYPC-OH; disulfide 2-5) | 0.003 | 0.23 |
| CC(=O)N1CC[C@@H](c2ccc(O)cc2)[C@@H]1C(=O)N[C@H]1CSSC[C@@H](C(=O)O)NC(=O)[C@@H]2CCCN2C(=O)[C@H](CO)NC1=O (Ac-[X3]CSPC-OH; disulfide 2-5) | 0.0005 | 0.008 |
| CC(=O)N1CC[C@H](c2ccc(O)cc2)[C@@H]1C(=O)N[C@H]1CSSC[C@@H](C(=O)O)NC(=O)[C@@H]2CCCN2C(=O)[C@H](CO)NC1=O (Ac-[X7]CSPC-OH; disulfide 2-5) | 0.004 | – |
| O=C(N[C@H]1CSSC[C@@H](C(=O)O)NC(=O)[C@@H]2CCCN2C(=O)[C@H](CO)NC1=O)c1ccccc1 (Bz-CSPC-OH; disulfide 1-4) | 0.134 | 1.9 |
| N=C(N)NCCC[C@H](NC(=O)OCC1c2ccccc2-c2ccccc21)C(=O)N[C@H]1CSSC[C@@H](C(=O)O)NC(=O)[C@@H]2CCCN2C(=O)[C@H](CC(=O)O)NC1=O (Fmoc-RCDPC-OH; disulfide 2-5) | 0.13 | 15 |
| N[C@@H](Cc1ccccc1)C(=O)N[C@H]1CSSC[C@@H](C(=O)O)NC(=O)[C@@H]2CCCN2C(=O)[C@H](CO)NC1=O (H-FCSPC-OH; disulfide 2-5) | 1.5 | 15 |
| NC(N)=NCCC[C@H](NC(=O)[C@@H](N)Cc1ccccc1)C(=O)N[C@H]1CSSC[C@@H](C(=O)O)NC(=O)[C@@H]2CCCN2C(=O)[C@H](CC(=O)O)NC1=O (H-FRCDPC-OH; disulfide 3-6) | 2.1 | 100 |
| NCCCC[C@H](N)C(=O)N[C@H]1CSSC[C@@H](C(=O)O)NC(=O)[C@@H]2CCCN2C(=O)[C@H](CC(=O)O)NC1=O (H-KCDPC-OH; disulfide 2-5) | 250 | 1000 |
| CC(C)C[C@H](N)C(=O)N[C@@H](CCCNC(=N)N)C(=O)N[C@H]1CSSC[C@@H](C(=O)O)NC(=O)[C@@H]2CCCN2C(=O)[C@H](CC(=O)O)NC1=O (H-LRCDPC-OH; disulfide 3-6) | 21 | 250 |

| Structure (SMILES) | IC50 (Integrin alpha-4/beta-1 [1]) [µM] | IC50 (Integrin alpha-4/beta-1 [2]) [µM] |
| --- | --- | --- |
| NC(=O)[C@@H]1CSSC[C@H](NC(=O)[C@@H](N)CCCN=C(N)N)C(=O)N[C@@H](CC(=O)O)C(=O)N2CCC[C@H]2C(=O)N1 (H-RCDPC-NH2; disulfide 2-5) | 50 | – |
| N=C(N)NCCC[C@H](NC(=O)[C@@H](N)Cc1c[nH]c2ccccc12)C(=O)N[C@H]1CSSC[C@@H](C(=O)O)NC(=O)[C@@H]2CCCN2C(=O)[C@H](CC(=O)O)NC1=O (H-WRCDPC-OH; disulfide 3-6) | 1.2 | 100 |
| C[C@H](NC(=O)[C@@H](N)Cc1ccc(O)cc1)C(=O)N[C@H]1CSSC[C@@H](C(=O)O)NC(=O)[C@@H]2CCCN2C(=O)[C@H](CC(=O)O)NC1=O (H-YACDPC-OH; disulfide 3-6) | 0.21 | 5 |
| C[C@@H]1NC(=O)[C@@H](NC(=O)[C@@H](N)Cc2ccc(O)cc2)CSSC[C@@H](C(=O)O)NC1=O (H-YCAC-OH; disulfide 2-4) | 9.4 | 350 |
| C[C@@H]1NC(=O)[C@@H](NC(=O)[C@@H](N)Cc2ccc(O)cc2)CSSC[C@@H](C(=O)O)NC(=O)[C@H](Cc2ccccc2)NC1=O (H-YCAFC-OH; disulfide 2-5) | 2.8 | 182 |
| CC[C@H](C)[C@@H]1NC(=O)[C@H](C)NC(=O)[C@@H](NC(=O)[C@@H](N)Cc2ccc(O)cc2)CSSC[C@@H](C(=O)O)NC1=O (H-YCAIC-OH; disulfide 2-5) | 0.023 | 0.94 |
| CC(C)C[C@@H]1NC(=O)[C@H](C)NC(=O)[C@@H](NC(=O)[C@@H](N)Cc2ccc(O)cc2)CSSC[C@@H](C(=O)O)NC1=O (H-YCALC-OH; disulfide 2-5) | 0.034 | 10.5 |
| C[C@@H]1NC(=O)[C@@H](NC(=O)[C@@H](N)Cc2ccc(O)cc2)CSSC[C@@H](C(=O)O)NC(=O)[C@@H]2CCCN2C1=O (H-YCAPC-OH; disulfide 2-5) | 0.005 | 0.12 |
| C[C@@H]1NC(=O)[C@@H](NC(=O)[C@@H](N)Cc2ccc(O)cc2)CSSC[C@@H](C(=O)O)NC(=O)C2(Cc3ccccc3C2)NC1=O (H-YCA[Aic]C-OH; disulfide 2-5) | 36 | – |
| C[C@@H]1NC(=O)[C@@H](NC(=O)[C@@H](N)Cc2ccc(O)cc2)CSSC[C@@H](C(=O)O)NC(=O)[C@H](CC2CCCCC2)NC1=O (H-YCA[Cha]C-OH; disulfide 2-5) | 0.14 | 25 |
| C[C@@H]1NC(=O)[C@@H](NC(=O)[C@@H](N)Cc2ccc(O)cc2)CSSC[C@@H](C(=O)O)NC(=O)[C@H](C2CCCCC2)NC1=O (H-YCA[Chg]C-OH; disulfide 2-5) | 0.23 | – |
| C[C@@H]1NC(=O)[C@@H](NC(=O)[C@@H](N)Cc2ccc(O)cc2)CSSC[C@@H](C(=O)O)NC(=O)[C@@H]2C[C@@H](O)CN2C1=O (H-YCA[Hyp]C-OH; disulfide 2-5) | 0.005 | – |
| C[C@@H]1NC(=O)[C@@H](NC(=O)[C@@H](N)Cc2ccc(O)cc2)CSSC[C@@H](C(=O)O)NC(=O)[C@@H]2CC3CCCCC3N2C1=O (stereo partly specified) (H-YCA[Oic(3aξ,7aξ)]C-OH; disulfide 2-5) | 0.02 | 4.7 |
| N[C@@H](Cc1ccc(O)cc1)C(=O)N[C@H]1CSSC[C@@H](C(=O)O)NC(=O)CNC1=O (H-YCGC-OH; disulfide 2-4) | 5.8 | 250 |
| C[C@@H]1NC(=O)[C@@H]2CCCN2C(=O)[C@@H](NC(=O)[C@@H](N)Cc2ccc(O)cc2)CSSC[C@@H](C(=O)O)NC1=O (H-YCPAC-OH; disulfide 2-5) | 0.23 | 14 |
| N[C@@H](Cc1ccc(O)cc1)C(=O)N[C@H]1CSSC[C@@H](C(=O)O)NC(=O)c2ccccc2NC1=O (H-YC[2Abz]C-OH; disulfide 2-4) | 1.3 | 80 |
| NC(=O)[C@@H]1CSSC[C@H](NC(=O)[C@@H](N)Cc2ccc(O)cc2)C(=O)Nc2cccc(c2)C(=O)N1 (H-YC[3Abz]C-NH2; disulfide 2-4) | 12 | – |
| N[C@@H](Cc1ccc(O)cc1)C(=O)N[C@H]1CSSC[C@@H](C(=O)O)NC(=O)c2cccc(c2)CNC1=O (H-YC[3Amb]C-OH; disulfide 2-4) | 6 | 210 |
| N[C@@H](Cc1ccc(O)cc1)C(=O)N[C@H]1CSSC[C@@H](C(=O)O)NC(=O)c2ccc(cc2)NC1=O (H-YC[4Abz]C-OH; disulfide 2-4) | 0.16 | 4.2 |
| N[C@@H](Cc1ccc(O)cc1)C(=O)N[C@H]1CSSC[C@@H](C(=O)O)NC(=O)c2ccc(cc2)CNC1=O (H-YC[4Amb]C-OH; disulfide 2-4) | 0.42 | 15 |
| N[C@@H](Cc1ccc(O)cc1)C(=O)N[C@H]1CSSC[C@@H](C(=O)O)NC(=O)CCCCNC1=O (H-YC[Ava]C-OH; disulfide 2-4) | 0.41 | 17 |
| N[C@@H](Cc1ccc(O)cc1)C(=O)N[C@H]1CSSC[C@@H](C(=O)O)NC(=O)[C@H](CC2CCCCC2)NC1=O (H-YC[Cha]C-OH; disulfide 2-4) | 18 | – |
| N[C@@H](Cc1ccc(O)cc1)C(=O)N[C@H]1CSSC[C@@H](C(=O)O)NC(=O)[C@H](C2CCCCC2)NC1=O (H-YC[Chg]C-OH; disulfide 2-4) | 115 | – |
